± gives the expanded uncertainty stated by the source.
Columns and labels:
[1] = Molar enthalpy of transition or fusion; conditions: DSC
[2] = for thermal conductivity: 101.33 kPa, Modified transient plane source method; for Normal melting temperature: Crystal 1, DTA; for Triple point temperature: DSC

CCCCCCCCCCCCCCCCCCCCCCCCCCCC [octacosane]
Molar enthalpy of transition or fusion ([1]; Crystal 1): 15.1 ± 0.55 kcal/mol | Molar enthalpy of transition or fusion ([1]; Crystal 2): 8.39 ± 0.311 kcal/mol | thermal conductivity ([2]; 297.7 K, Crystal 2): 0.514 ± 0.031 W/m/K | thermal conductivity ([2]; 302.4 K, Crystal 2): 0.489 ± 0.03 W/m/K | thermal conductivity ([2]; 308 K, Crystal 2): 0.471 ± 0.029 W/m/K | thermal conductivity ([2]; 312.7 K, Crystal 2): 0.469 ± 0.028 W/m/K | thermal conductivity ([2]; 318.6 K, Crystal 2): 0.473 ± 0.031 W/m/K | thermal conductivity ([2]; 323.4 K, Crystal 2): 0.505 ± 0.032 W/m/K | thermal conductivity ([2]; 337.7 K, Liquid): 0.152 ± 0.005 W/m/K | thermal conductivity ([2]; 343.1 K, Liquid): 0.151 ± 0.005 W/m/K | thermal conductivity ([2]; 348 K, Liquid): 0.149 ± 0.005 W/m/K | thermal conductivity ([2]; 353 K, Liquid): 0.149 ± 0.005 W/m/K | Normal melting temperature [2]: 60.2 ± 1 °C | Triple point temperature ([2]; Crystal 2): 330.4 ± 0.8 K

CCCCCCCCCCCC [dodecane]
thermal conductivity ([2]; 318.2 K, Liquid): 0.135 ± 0.004 W/m/K | thermal conductivity ([2]; 323.2 K, Liquid): 0.134 ± 0.005 W/m/K | thermal conductivity ([2]; 328.1 K, Liquid): 0.133 ± 0.005 W/m/K | thermal conductivity ([2]; 333.1 K, Liquid): 0.131 ± 0.005 W/m/K | thermal conductivity ([2]; 337.7 K, Liquid): 0.13 ± 0.005 W/m/K | thermal conductivity ([2]; 343.2 K, Liquid): 0.128 ± 0.005 W/m/K | thermal conductivity ([2]; 347.9 K, Liquid): 0.127 ± 0.005 W/m/K | thermal conductivity ([2]; 352.8 K, Liquid): 0.127 ± 0.005 W/m/K

CCCCCCCCCCCCCCCCCCCCCCCCCCCCCC [triacontane]
Molar enthalpy of transition or fusion ([1]; Crystal 1): 16.7 ± 0.598 kcal/mol | Molar enthalpy of transition or fusion ([1]; Crystal 2): 9.03 ± 0.335 kcal/mol | thermal conductivity ([2]; 297.7 K, Crystal 2): 0.616 ± 0.038 W/m/K | thermal conductivity ([2]; 302.3 K, Crystal 2): 0.603 ± 0.036 W/m/K | thermal conductivity ([2]; 307.8 K, Crystal 2): 0.556 ± 0.034 W/m/K | thermal conductivity ([2]; 312.6 K, Crystal 2): 0.612 ± 0.037 W/m/K | thermal conductivity ([2]; 318.5 K, Crystal 2): 0.559 ± 0.035 W/m/K | thermal conductivity ([2]; 323.3 K, Crystal 2): 0.514 ± 0.033 W/m/K | thermal conductivity ([2]; 328 K, Crystal 2): 0.536 ± 0.034 W/m/K | thermal conductivity ([2]; 343.1 K, Liquid): 0.153 ± 0.005 W/m/K | thermal conductivity ([2]; 348 K, Liquid): 0.152 ± 0.005 W/m/K | thermal conductivity ([2]; 353.5 K, Liquid): 0.151 ± 0.005 W/m/K | Normal melting temperature [2]: 64.0 ± 1.5 °C | Triple point temperature ([2]; Crystal 2): 334.2 ± 0.8 K

CCCCCCCCCCCCCCCCCCCCCCCCCC [hexacosane]
Molar enthalpy of transition or fusion ([1]; Crystal 1): 13.2 ± 0.837 kcal/mol | Molar enthalpy of transition or fusion ([1]; Crystal 2): 7.37 ± 0.287 kcal/mol | thermal conductivity ([2]; 297.6 K, Crystal 2): 0.499 ± 0.031 W/m/K | thermal conductivity ([2]; 302.4 K, Crystal 2): 0.524 ± 0.031 W/m/K | thermal conductivity ([2]; 307.8 K, Crystal 2): 0.484 ± 0.032 W/m/K | thermal conductivity ([2]; 312.7 K, Crystal 2): 0.513 ± 0.032 W/m/K | thermal conductivity ([2]; 318.5 K, Crystal 2): 0.574 ± 0.036 W/m/K | thermal conductivity ([2]; 333 K, Liquid): 0.151 ± 0.005 W/m/K | thermal conductivity ([2]; 337.8 K, Liquid): 0.15 ± 0.005 W/m/K | thermal conductivity ([2]; 343.1 K, Liquid): 0.149 ± 0.006 W/m/K | thermal conductivity ([2]; 348 K, Liquid): 0.148 ± 0.005 W/m/K | thermal conductivity ([2]; 353.1 K, Liquid): 0.147 ± 0.005 W/m/K | Normal melting temperature [2]: 55.7 ± 0.5 °C | Triple point temperature ([2]; Crystal 2): 325.7 ± 0.8 K

CCCCCCCCCCCCCCCCCCCCCCCCCCCCCCCC [dotriacontane]
Molar enthalpy of transition or fusion ([1]; Crystal 1): 18 ± 0.693 kcal/mol | Molar enthalpy of transition or fusion ([1]; Crystal 2): 9.3 ± 0.359 kcal/mol | thermal conductivity ([2]; 297.7 K, Crystal 2): 0.574 ± 0.034 W/m/K | thermal conductivity ([2]; 302.3 K, Crystal 2): 0.574 ± 0.036 W/m/K | thermal conductivity ([2]; 307.5 K, Crystal 2): 0.585 ± 0.036 W/m/K | thermal conductivity ([2]; 312.8 K, Crystal 2): 0.607 ± 0.038 W/m/K | thermal conductivity ([2]; 318 K, Crystal 2): 0.585 ± 0.037 W/m/K | thermal conductivity ([2]; 323.1 K, Crystal 2): 0.561 ± 0.035 W/m/K | thermal conductivity ([2]; 328 K, Crystal 2): 0.588 ± 0.036 W/m/K | thermal conductivity ([2]; 332.6 K, Crystal 2): 0.621 ± 0.038 W/m/K | thermal conductivity ([2]; 343 K, Liquid): 0.153 ± 0.006 W/m/K | thermal conductivity ([2]; 348 K, Liquid): 0.152 ± 0.006 W/m/K | thermal conductivity ([2]; 353.1 K, Liquid): 0.149 ± 0.005 W/m/K | Normal melting temperature [2]: 69 ± 0.5 °C | Triple point temperature ([2]; Crystal 2): 338.1 ± 0.8 K

CCCCCCCCCCCCCCCCCCCCCC [docosane]
Molar enthalpy of transition or fusion ([1]; Crystal 1): 9.92 ± 0.359 kcal/mol | Molar enthalpy of transition or fusion ([1]; Crystal 2): 6.92 ± 0.263 kcal/mol | thermal conductivity ([2]; 297.6 K, Crystal 2): 0.624 ± 0.039 W/m/K | thermal conductivity ([2]; 302.4 K, Crystal 2): 0.668 ± 0.041 W/m/K | thermal conductivity ([2]; 307.9 K, Crystal 2): 0.637 ± 0.04 W/m/K | thermal conductivity ([2]; 318.1 K, Liquid): 0.151 ± 0.005 W/m/K | thermal conductivity ([2]; 323 K, Liquid): 0.15 ± 0.005 W/m/K | thermal conductivity ([2]; 328.1 K, Liquid): 0.148 ± 0.005 W/m/K | thermal conductivity ([2]; 333 K, Liquid): 0.146 ± 0.005 W/m/K | thermal conductivity ([2]; 337.7 K, Liquid): 0.145 ± 0.005 W/m/K | thermal conductivity ([2]; 343 K, Liquid): 0.144 ± 0.005 W/m/K | thermal conductivity ([2]; 347.9 K, Liquid): 0.143 ± 0.005 W/m/K | thermal conductivity ([2]; 353 K, Liquid): 0.142 ± 0.005 W/m/K | Normal melting temperature [2]: 43.5 ± 0.5 °C | Triple point temperature ([2]; Crystal 2): 315.6 ± 0.8 K

CCCCCCCCCCCCCCCCCCCCCCCC [tetracosane]
Molar enthalpy of transition or fusion ([1]; Crystal 1): 12.2 ± 1.27 kcal/mol | Molar enthalpy of transition or fusion ([1]; Crystal 2): 7.41 ± 0.43 kcal/mol | thermal conductivity ([2]; 297.6 K, Crystal 2): 0.594 ± 0.036 W/m/K | thermal conductivity ([2]; 302.3 K, Crystal 2): 0.545 ± 0.033 W/m/K | thermal conductivity ([2]; 307.7 K, Crystal 2): 0.545 ± 0.033 W/m/K | thermal conductivity ([2]; 312.9 K, Crystal 2): 0.603 ± 0.036 W/m/K | thermal conductivity ([2]; 323.1 K, Liquid): 0.152 ± 0.005 W/m/K | thermal conductivity ([2]; 328 K, Liquid): 0.151 ± 0.005 W/m/K | thermal conductivity ([2]; 333 K, Liquid): 0.149 ± 0.005 W/m/K | thermal conductivity ([2]; 337.6 K, Liquid): 0.148 ± 0.005 W/m/K | thermal conductivity ([2]; 343.1 K, Liquid): 0.146 ± 0.005 W/m/K | thermal conductivity ([2]; 348 K, Liquid): 0.146 ± 0.005 W/m/K | thermal conductivity ([2]; 353 K, Liquid): 0.145 ± 0.006 W/m/K | Normal melting temperature [2]: 50.0 ± 0.5 °C | Triple point temperature ([2]; Crystal 2): 320.8 ± 0.8 K

Reference: the NIST ThermoML archive (doi:10.1016/j.fluid.2018.08.016)
